Consider 2 compounds from patent publication US8101663B2, “Polymorphs of suberoylanilide hydroxamic acid” (Merck HDAC Research, LLC, priority 2002, dated 2012).

The structures appear in SMILES notation. Values joined by “and” are separate entries in the source; they are usually repeats but may differ in a detail not shown here. Equal values may be shown once.

Data set [1] has as its system murine erythroleukemia cells (MELC). The settings on record: without continuing drug exposure; cited from earlier work.
The test system of data set [2] is solid tumors, Hodgkin's or non-Hodgkin's lymphomas, leukemia. Description: Anti-tumor response in patients on oral SAHA. The format is in vivo. The source says:
(§1) In another experiment, twenty-five patients with solid tumors have been enrolled onto arm A, thirteen patients with Hodgkin's or non-Hodgkin's lymphomas have been enrolled onto arm B, and one patient with acute leukemia and one patient with myelodysplastic syndrome have been enrolled onto arm C, as shown in Table 4.
Thirteen patients continued treatment for 3-12 months with responding or stable disease: thyroid (n=3), sweat gland (n=1), renal (n=2), larynx (n=1), prostate (n=1), Hodgkin's lymphoma (n=2), non-Hodgkin's lymphoma (n=2), and leukemia (n=1).
Six patients had tumor shrinkage on CT scans. Three of these six patients meet the criteria of partial response (one patient with metastatic laryngeal cancer and two patients with non-Hodgkin's lymphomas). These partial responses occurred at the dose levels of 400 mg BID (n=2) and 600 mg QD (n=1).

Data set [3] relates to acetylated histones in peripheral mononuclear cells. In words: Histone acetylation in peripheral blood mononuclear cells after SAHA capsules (anti-acetylated histone H3 antibody). In kind it is in vivo, patients. The conditions noted are these: 400 mg per day dose level, preliminary analysis. As to the method: Peripheral blood mononuclear cells were collected pre-therapy, immediately post-infusion and between 2-10 hours after oral ingestion of the SAHA capsules to assess the effect of SAHA on the extent of histone acetylation in a normal host cell. Histones were isolated and probed with anti-acetylated histone (H3) antibody followed by HRP-secondary antibody.

Data set [4] is described as follows: Interim pharmacokinetic analysis of oral SAHA, dose escalation study. The format is in vivo, patients. The method, then: as §1
The interim pharmacokinetic analysis was based on 18 patients treated on the dose levels of 200 mg QD, 400 mg QD, and 400 mg BID. […] Overall, the fraction of AUCinf due to extrapolation was 1% or less.

Data set [5] concerns carcinogen-induced (N-methylnitrosourea) mammary tumors. The settings on record: rats, SAHA in the diet over 130 days; cited from earlier work.
Data set [6] is described as follows: Serum plasma levels of SAHA after IV and oral dosing (HPLC assay, LCMS using a deuterated standard). The format is in vivo, humans. The settings on record: human. The method, then: Objectives: To define a safe daily oral regimen of SAHA that can be used in Phase II studies. In addition, the pharmacokinetic profile of the oral formulation of SAHA was be evaluated. The oral bioavailability of SAHA in humans in the fasting vs. non-fasting state and anti-tumor effects of treatment were also monitored. Additionally, the biological effects of SAHA on normal tissues and tumor cells were assessed and responses with respect to levels of histone acetylation were documented.
Patients: Patients with histologically documented advanced stage, primary or metastatic adult solid tumors that are refractory to standard therapy or for which no curative standard therapy exists. Patients must have a Karnofsky Performance Status of ≧70%, and adequate hematologic, hepatic and renal function. Patients must be at least four weeks from any prior chemotherapy, radiation therapy or other investigational anticancer drugs.
Dosing Schedule: On the first day, patients were first treated with 200 mg of intravenously-administered SAHA. Starting on the second day, patients were treated with daily doses of oral SAHA according to Table 1. Each cohort received a different dose of SAHA. “QD” indicates dosing once a day; “Q12 hours” indicates dosing twice a day. For example, patients in Cohort IV received […] of SAHA per day. Doses were administered to patients daily and continuously. Blood samples were taken on day one and on day 21 of oral treatment. Patients were taken off oral SAHA treatment due to disease progression, tumor regression, unacceptable side effects, or treatment with other therapies.
Cmax is the maximum concentration of SAHA observed after administration. IV SAHA was administered at 200 mg infused over two hours. The oral SAHA was administered in a single capsule at 200 mg. Tables 2 and 3 summarize the results of an HPLC assay (LCMS using a deuterated standard) that quantitates the amount of SAHA in the blood plasma of the patients versus time, using acetylated histone-4 (α-AcH4) as a marker.

Data set [7] is classed as in vivo, patients. The conditions noted are these: once a day, continuous.
Text: as §1
Among eleven patients treated in Cohort II, one patient experienced the DLT of grade 3 diarrhea and grade 3 dehydration during the first treatment cycle. Nine patients were entered into Cohort III. Two patients were inevaluable for the 28-day toxicity assessment because of early study termination due to rapid progression of disease. Of the seven remaining patients, five experienced DLT during the first treatment cycle: diarrhea/dehydration (n=1), fatigue/dehydration (n=1), anorexia (n=1), dehydration (n=1) and anorexia/dehydration (n=1). These five patients recovered in approximately one week after the study drug was held. They were subsequently dose reduced to 400 mg QD which appeared to be well tolerated. The median days on 400 mg BID for all patients in Cohort III was 21 days. […] Following protocol amendment, accrual was continued in cohort IV at a dose of 600 mg once a day. Of the seven patients enrolled onto cohort IV, two were inevaluable for the 28-day toxicity assessment because of early study termination due to rapid progression of disease. […]

[8] abbreviates: iv, 200 mg, Patient #1, IV, 200 mg infused over two hours.
The mark [9] stands for this setting: iv, 200 mg, Patient #2, IV, 200 mg infused over two hours.
Where [10] appears, read: po, 200 mg, Patient #1, oral (fasting), single capsule 200 mg.
Setting [11] is: po, 200 mg, Patient #1, oral (nonfasting), single capsule 200 mg.
[12] abbreviates: po, 200 mg, Patient #2, oral (fasting), single capsule 200 mg.
Where [13] appears, read: po, 200 mg, Patient #2, oral (nonfasting), single capsule 200 mg.

Regarding `CC(=O)NCCCCCCNC(C)=O` [HMBA, N,N′-hexamethylene bisacetamide], the “Minimum duration of continuous exposure required to induce differentiation in a substantial portion (>20%) of the population” value in data set [1] is given as “about 36 hours”.

For the compound `O=C(CCCCCCC(=O)Nc1ccccc1)NO` [SAHA, suberoylanilide hydroxamic acid], in data set [2] (dose levels 400 mg BID (n=2) and 600 mg QD (n=1), laryngeal cancer, non-Hodgkin's lymphomas), the “Patients meeting the criteria of partial response” value is “Three”. The “Patients with tumor shrinkage on CT scans” value in data set [2] (oral SAHA) was “Six”. Also, the “Patients who continued treatment for 3-12 months with responding or stable disease” value in data set [2] (oral SAHA, 40 patients enrolled) was “Thirteen”. The “Time after ingestion up to which increased accumulation of acetylated histones could be detected” value in data set [3] is given as “up to 10 hours”. In data set [4] (human, plasma, calculated from the AUCinf values after the IV infusion and oral routes, read-out: Bioavailable fraction of SAHA), the bioavailability is approximately 48%. Also, the half-life in data set [4] (human, plasma, oral, across dose groups 200 mg QD, 400 mg QD, 400 mg BID, fasting or with food, 18 patients, read-out: Mean estimates for apparent half-life) is 1.02 to 1.9 h; in data set [6] (Patient #2, oral (fasting), single capsule 200 mg), 1.37 h; in data set [6] (setting [8]) it was 0.333 h; in data set [6] (setting [9]), 0.35 h; in data set [6] (setting [10]), 1.33 h; in data set [6] (setting [11]), 1.07 h. This compound registered a half-life in data set [6] (setting [13]) of 1.55 h. The Cmax in data set [4] (human, plasma, oral, dose levels 200 mg QD, 400 mg QD, 400 mg BID, 18 patients, read-out: Mean estimates of Cmax) is 233 ng/mL to 570 ng/mL and 880 nM to 2.3 µM; in data set [6] (setting [8]), 1.33 µg/mL; in data set [6] (setting [9]) it was 1 µg/mL; in data set [6] (setting [10]), 0.225 µg/mL; in data set [6] (setting [11]) it was 0.328 µg/mL; in data set [6] (setting [12]), 0.362 µg/mL. The Cmax in data set [6] (setting [13]) stood at 0.302 µg/mL. Also, the “Dose dependence of mean estimates of Cmax and AUCinf” value in data set [4] (oral, fasting or with food, 200 mg to 400 mg dose range) is given as “increased proportionally with dose”. Further, in data set [5], the “Effect on development and continued growth of mammary tumors” value was “effective at inhibiting the development and continued growth”. The area under the curve (AUC) in data set [6] (setting [8]) was 2.55 µg·h/mL; in data set [6] (setting [9]), 1.8 µg·h/mL; in data set [6] (setting [10]), 0.417 µg·h/mL; in data set [6] (setting [11]), 0.983 µg·h/mL; in data set [6] (setting [12]), 1.05 µg·h/mL; in data set [6] (setting [13]), 0.998 µg·h/mL. Also, the “Maximally tolerated dose for once daily oral administration” value in data set [7] is on record as 400 mg.

One may read the half-life as how long it takes for the measured level to halve. Usually Cmax stands for the peak of the concentration-time curve. One may read the AUC as the area under the concentration-time curve, a measure of exposure. High values mean high exposure, low ones low exposure.
